# Starred links: 1 amine or outer side, 2 acyl side, 3 side chain; linkers in the order of their positions; H or OH if unused. Positions of bridges follow the written chain, without caps; N, C: chain ends. Non-standard residues stand in square brackets, D forms with d. Residues, ends and D or L forms follow the SMILES beside them. Bip(4'-COOH) = N[C@@H](Cc1ccc(-c2ccc(C(=O)O)cc2)cc1)C(=O)O; Bip(4'-NHAc) = CC(=O)Nc1ccc(-c2ccc(C[C@H](N)C(=O)O)cc2)cc1; Phe(3-CH2NH2) = O=C([C@H](Cc1cccc(CN[*:3])c1)N[*:1])[*:2]; Ala(morpholin-4-yl) = N[C@@H](CN1CCOCC1)C(=O)O; Bip = N[C@@H](Cc1ccc(-c2ccccc2)cc1)C(=O)O; Morpholine(3S-CO) = O=C(O)[C@@H]1COCCN1; Pro(4S-NH2) = N[C@@H]1CN[C@H](C(=O)O)C1; Val(3-OH) = CC(C)(O)[C@H](N)C(=O)O; cisHyp = O=C(O)[C@@H]1C[C@H](O)CN1; h4Pal = N[C@@H](CCc1ccncc1)C(=O)O; 2Pal = N[C@@H](Cc1ccccn1)C(=O)O; 3Pal = N[C@@H](Cc1cccnc1)C(=O)O; Cha = N[C@@H](CC1CCCCC1)C(=O)O; Pip = O=C(O)[C@@H]1CCCCN1; Aze = O=C(O)[C@@H]1CCN1; Sar = CNCC(=O)O
# Target: TNFα (Homo sapiens, UniProt P01375)
# Sequence (P01375 77-233 limits assumed): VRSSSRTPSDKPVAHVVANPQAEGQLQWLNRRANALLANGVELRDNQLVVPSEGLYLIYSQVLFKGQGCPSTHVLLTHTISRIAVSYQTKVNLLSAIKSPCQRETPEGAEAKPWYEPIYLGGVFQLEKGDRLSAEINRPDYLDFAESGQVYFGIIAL
# Assay: TNF-Induced HEK-Blue Assay
# Format: cell-based
# Conditions: HEK-Blue-CD40L cells, NF-kB-driven secreted alkaline phosphatase reporter; TNFα 0.5 ng/ml; 18 h; read-out: TNF induced HEK-Blue assay IC50 value
row,Structure (SMILES),IC50 [nM]
1,CC(=O)Nc1ccc(-c2ccc(C[C@@H]3NC(=O)[C@H](Cc4ccc(-c5ccccc5)cc4)NC(=O)[C@H](CN4CCOCC4)NC(=O)CSC[C@@H](C(=O)NCC(N)=O)NC(=O)[C@H](CC(C)C)NC(=O)[C@H](Cc4ccccc4)NC(=O)[C@H](C(C)C)NC(=O)[C@@H]4CCCN4C(=O)[C@H](C(C)C)NC(=O)[C@@H](CCCNC(=N)N)NC(=O)[C@H](CC(=O)O)NC(=O)[C@H](Cc4ccccc4)NC(=O)CN(C)C3=O)cc2)cc1 [Example 174] ({CH2CO}-[Ala(morpholin-4-yl)][Bip][Bip(4'-NHAc)][Sar]FD[dR]VPVFLCG-NH2; thioether N-13),50 to 200
2,CC(=O)Nc1ccc(-c2ccc(C[C@@H]3NC(=O)[C@H](Cc4ccc(-c5ccccc5)cc4)NC(=O)[C@H](C(C)(C)O)NC(=O)CSC[C@@H](C(=O)NCC(N)=O)NC(=O)[C@H](CC(C)C)NC(=O)[C@H](Cc4ccc(O)cc4)NC(=O)[C@H](C(C)C)NC(=O)[C@@H]4CCCN4C(=O)[C@H](C(C)C)NC(=O)[C@@H](CCCNC(=N)N)NC(=O)[C@H](CC(=O)O)NC(=O)[C@H](Cc4ccccn4)NC(=O)CN(C)C3=O)cc2)cc1 [Example 175] ({CH2CO}-[Val(3-OH)][Bip][Bip(4'-NHAc)][Sar][2Pal]D[dR]VPVYLCG-NH2; thioether N-13),< 50
3,CC(=O)Nc1ccc(-c2ccc(C[C@@H]3NC(=O)[C@H](Cc4ccc(-c5ccccc5)cc4)NC(=O)[C@H](CN4CCOCC4)NC(=O)CSC[C@@H](C(=O)NCC(N)=O)NC(=O)[C@H](CC(C)C)NC(=O)[C@H](Cc4cccnc4)NC(=O)[C@H](C(C)C)NC(=O)[C@@H]4CCCN4C(=O)[C@H](C(C)C)NC(=O)[C@@H](CCCNC(=N)N)NC(=O)[C@H](CC(=O)O)NC(=O)[C@H](Cc4ccccn4)NC(=O)CN(C)C3=O)cc2)cc1 [Example 176] ({CH2CO}-[Ala(morpholin-4-yl)][Bip][Bip(4'-NHAc)][Sar][2Pal]D[dR]VPV[3Pal]LCG-NH2; thioether N-13),< 50
4,CC(=O)Nc1ccc(-c2ccc(C[C@@H]3NC(=O)[C@H](Cc4ccc(-c5ccccc5)cc4)NC(=O)[C@H](CN4CCOCC4)NC(=O)CSC[C@@H](C(=O)NCC(N)=O)NC(=O)[C@H](CC(C)C)NC(=O)[C@H](Cc4ccc(O)cc4)NC(=O)[C@H](C(C)C)NC(=O)[C@@H]4CCCN4C(=O)[C@H](Cc4ccc(O)cc4)NC(=O)[C@@H](CCCNC(=N)N)NC(=O)[C@H](CC(=O)O)NC(=O)[C@H](Cc4ccccn4)NC(=O)CN(C)C3=O)cc2)cc1 [Example 177] ({CH2CO}-[Ala(morpholin-4-yl)][Bip][Bip(4'-NHAc)][Sar][2Pal]D[dR]YPVYLCG-NH2; thioether N-13),50 to 200
5,CC(=O)Nc1ccc(-c2ccc(C[C@@H]3NC(=O)[C@H](Cc4ccc(-c5ccccc5)cc4)NC(=O)[C@H](C(C)(C)O)NC(=O)CSC[C@@H](C(=O)NCC(N)=O)NC(=O)[C@H](CC(C)C)NC(=O)[C@H](Cc4ccc(O)cc4)NC(=O)[C@H](C(C)C)NC(=O)[C@@H]4CCCN4C(=O)[C@H](Cc4ccc(O)cc4)NC(=O)[C@@H](CCCNC(=N)N)NC(=O)[C@H](CC(=O)O)NC(=O)[C@H](Cc4ccccn4)NC(=O)CN(C)C3=O)cc2)cc1 [Example 178] ({CH2CO}-[Val(3-OH)][Bip][Bip(4'-NHAc)][Sar][2Pal]D[dR]YPVYLCG-NH2; thioether N-13),< 50
6,CC(=O)Nc1ccc(-c2ccc(C[C@@H]3NC(=O)[C@H](Cc4ccc(-c5ccccc5)cc4)NC(=O)[C@H](CN4CCOCC4)NC(=O)CSC[C@@H](C(=O)N[C@@H](CCCCN)C(=O)O)NC(=O)[C@H](CC(C)C)NC(=O)[C@H](Cc4ccc(O)cc4)NC(=O)[C@H](C(C)C)NC(=O)[C@@H]4CCCN4C(=O)[C@H](C(C)C)NC(=O)[C@@H](CCCNC(=N)N)NC(=O)[C@H](CC(=O)O)NC(=O)[C@H](Cc4ccccn4)NC(=O)CN(C)C3=O)cc2)cc1 [Example 179] ({CH2CO}-[Ala(morpholin-4-yl)][Bip][Bip(4'-NHAc)][Sar][2Pal]D[dR]VPVYLCK-OH; thioether N-13),50 to 200
7,CC(=O)Nc1ccc(-c2ccc(C[C@@H]3NC(=O)[C@H](Cc4ccc(-c5ccccc5)cc4)NC(=O)[C@H](CN4CCOCC4)NC(=O)CSC[C@@H](C(=O)NCC(N)=O)NC(=O)[C@H](CC(C)C)NC(=O)[C@H](Cc4ccc(O)cc4)NC(=O)[C@H](C(C)C)NC(=O)[C@@H]4COCCN4C(=O)[C@H](C(C)C)NC(=O)[C@@H](CCCNC(=N)N)NC(=O)[C@H](CC(=O)O)NC(=O)[C@H](Cc4ccccn4)NC(=O)CN(C)C3=O)cc2)cc1 [Example 180] ({CH2CO}-[Ala(morpholin-4-yl)][Bip][Bip(4'-NHAc)][Sar][2Pal]D[dR]V[Morpholine(3S-CO)]VYLCG-NH2; thioether N-13),50 to 200
8,CC(=O)Nc1ccc(-c2ccc(C[C@@H]3NC(=O)[C@H](Cc4ccc(-c5ccc(C(=O)O)cc5)cc4)NC(=O)[C@H](CN4CCOCC4)NC(=O)CSC[C@@H](C(=O)NCC(N)=O)NC(=O)[C@H](CC(C)C)NC(=O)[C@H](Cc4cccc(CN)c4)NC(=O)[C@H](C(C)C)NC(=O)[C@@H]4CCN4C(=O)[C@H](C(C)C)NC(=O)[C@@H](CCCNC(=N)N)NC(=O)[C@H](CC(=O)O)NC(=O)[C@H](Cc4ccccn4)NC(=O)CN(C)C3=O)cc2)cc1 [Example 181] ({CH2CO}-[Ala(morpholin-4-yl)][Bip(4'-COOH)][Bip(4'-NHAc)][Sar][2Pal]D[dR]V[Aze]V[Phe(3-CH2NH2)]LCG-NH2; thioether N-13),< 50
9,CC(=O)Nc1ccc(-c2ccc(C[C@@H]3NC(=O)[C@H](Cc4ccc(-c5ccccc5)cc4)NC(=O)[C@H](CN4CCOCC4)NC(=O)CSC[C@@H](C(=O)NCC(N)=O)NC(=O)[C@H](CC(C)C)NC(=O)[C@H](Cc4ccc(O)cc4)NC(=O)[C@H](C(C)C)NC(=O)[C@@H]4CCCN4C(=O)[C@H](C(C)C)NC(=O)[C@@H](CCCNC(=N)N)NC(=O)[C@H](CC(=O)O)NC(=O)[C@@H]4CCCCN4C(=O)CN(C)C3=O)cc2)cc1 [Example 182] ({CH2CO}-[Ala(morpholin-4-yl)][Bip][Bip(4'-NHAc)][Sar][Pip]D[dR]VPVYLCG-NH2; thioether N-13),50 to 200
10,CC(=O)Nc1ccc(-c2ccc(C[C@@H]3NC(=O)[C@H](Cc4ccc(-c5ccccc5)cc4)NC(=O)[C@H](CN4CCOCC4)NC(=O)CSC[C@@H](C(=O)NCC(N)=O)NC(=O)[C@H](CC(C)C)NC(=O)[C@H](Cc4ccc(O)cc4)NC(=O)[C@H](C(C)C)NC(=O)[C@@H]4CCCN4C(=O)[C@H](C(C)C)NC(=O)[C@@H](CCCNC(=N)N)NC(=O)[C@H](CC(=O)O)NC(=O)[C@@H]4C[C@H](O)CN4C(=O)CN(C)C3=O)cc2)cc1 [Example 183] ({CH2CO}-[Ala(morpholin-4-yl)][Bip][Bip(4'-NHAc)][Sar][cisHyp]D[dR]VPVYLCG-NH2; thioether N-13),50 to 200
11,CC(=O)Nc1ccc(-c2ccc(C[C@@H]3NC(=O)[C@H](Cc4ccc(-c5ccccc5)cc4)NC(=O)[C@H](CN4CCOCC4)NC(=O)CSC[C@@H](C(=O)NCC(N)=O)NC(=O)[C@H](CC(C)C)NC(=O)[C@H](Cc4ccc(O)cc4)NC(=O)[C@H](C(C)C)NC(=O)[C@@H]4CCCN4C(=O)[C@H](C(C)C)NC(=O)[C@@H](CCCNC(=N)N)NC(=O)[C@H](CC(=O)O)NC(=O)[C@@H]4C[C@H](N)CN4C(=O)CN(C)C3=O)cc2)cc1 [Example 184] ({CH2CO}-[Ala(morpholin-4-yl)][Bip][Bip(4'-NHAc)][Sar][Pro(4S-NH2)]D[dR]VPVYLCG-NH2; thioether N-13),< 50
12,CC(=O)Nc1ccc(-c2ccc(C[C@@H]3NC(=O)[C@H](Cc4ccc(-c5ccc(C(=O)O)cc5)cc4)NC(=O)[C@H](CN4CCOCC4)NC(=O)CSC[C@@H](C(=O)NCC(N)=O)NC(=O)[C@H](CC(C)C)NC(=O)[C@H](CCCNC(=N)N)NC(=O)[C@H](C(C)C)NC(=O)[C@@H]4CCN4C(=O)[C@H](C(C)C)NC(=O)[C@@H](CCCNC(=N)N)NC(=O)[C@H](CC(=O)O)NC(=O)[C@H](Cc4ccccn4)NC(=O)CN(C)C3=O)cc2)cc1 [Example 185] ({CH2CO}-[Ala(morpholin-4-yl)][Bip(4'-COOH)][Bip(4'-NHAc)][Sar][2Pal]D[dR]V[Aze]VRLCG-NH2; thioether N-13),< 50
13,CC(C)C[C@@H]1NC(=O)[C@H](Cc2ccc(O)cc2)NC(=O)[C@H](C(C)C)NC(=O)[C@@H]2CCCN2C(=O)[C@H](C(C)C)NC(=O)[C@@H](CCCNC(=N)N)NC(=O)[C@H](CC(=O)O)NC(=O)[C@H](Cc2ccc(O)cc2)NC(=O)CN(C)C(=O)[C@H](Cc2ccc(-c3ccccc3)cc2)NC(=O)[C@H](Cc2ccc(-c3ccc(C(=O)O)cc3)cc2)NC(=O)[C@H](CCc2ccncc2)NC(=O)CSC[C@@H](C(=O)NCC(N)=O)NC1=O [Example 186] ({CH2CO}-[h4Pal][Bip(4'-COOH)][Bip][Sar]YD[dR]VPVYLCG-NH2; thioether N-13),50 to 200
14,CC(C)C[C@@H]1NC(=O)[C@H](Cc2ccc(O)cc2)NC(=O)[C@H](C(C)C)NC(=O)[C@@H]2CCCN2C(=O)[C@H](C(C)C)NC(=O)[C@@H](CCCNC(=N)N)NC(=O)[C@H](CC(=O)O)NC(=O)[C@H](Cc2ccc(O)cc2)NC(=O)CN(C)C(=O)[C@H](Cc2ccc(-c3ccccc3)cc2)NC(=O)[C@H](Cc2ccc(-c3ccc(C(=O)O)cc3)cc2)NC(=O)[C@H](CC2CCCCC2)NC(=O)CSC[C@@H](C(=O)NCC(N)=O)NC1=O [Example 187] ({CH2CO}-[Cha][Bip(4'-COOH)][Bip][Sar]YD[dR]VPVYLCG-NH2; thioether N-13),50 to 200
15,CC[C@H](C)[C@@H]1NC(=O)CSC[C@@H](C(=O)NCC(N)=O)NC(=O)[C@H](CC(C)C)NC(=O)[C@H](Cc2ccc(O)cc2)NC(=O)[C@H](C(C)C)NC(=O)[C@@H]2CCCN2C(=O)[C@H](C(C)C)NC(=O)[C@@H](CCCNC(=N)N)NC(=O)[C@H](CC(=O)O)NC(=O)[C@H](Cc2ccc(O)cc2)NC(=O)CN(C)C(=O)[C@H](Cc2ccc(-c3ccccc3)cc2)NC(=O)[C@H](Cc2ccc(-c3ccc(C(=O)O)cc3)cc2)NC1=O [Example 188] ({CH2CO}-I[Bip(4'-COOH)][Bip][Sar]YD[dR]VPVYLCG-NH2; thioether N-13),< 50
16,CC(C)C[C@@H]1NC(=O)[C@H](Cc2ccc(O)cc2)NC(=O)[C@H](C(C)C)NC(=O)[C@@H]2CCCN2C(=O)[C@H](C(C)C)NC(=O)[C@@H](CCCNC(=N)N)NC(=O)[C@H](CC(=O)O)NC(=O)[C@H](Cc2ccc(O)cc2)NC(=O)CN(C)C(=O)[C@H](Cc2ccc(-c3ccccc3)cc2)NC(=O)[C@H](Cc2ccc(-c3ccc(C(=O)O)cc3)cc2)NC(=O)[C@H](Cc2c[nH]c3ccccc23)NC(=O)CSC[C@@H](C(=O)NCC(N)=O)NC1=O [Example 189] ({CH2CO}-W[Bip(4'-COOH)][Bip][Sar]YD[dR]VPVYLCG-NH2; thioether N-13),200 to 2000

# — patent publication US20250145665A1, “MACROCYCLIC PEPTIDES USEFUL AS MODULATORS OF TNF ALPHA” (Bristol-Myers Squibb Company, priority 2023, published 2025)
